For one experiment, the system named is Mus musculus. As to the kind of experiment: Compound was tested for the inhibition of tetrabenazine-induced sedation in mice, after peroral administration. It counts as functional. As to conditions: po.
Experiment [1] concerns Rattus norvegicus. Briefly: Compound was tested for the inhibition of tetrabenazine-induced sedation in rat, after peroral administration; failed to produce a 50%antagonism. Format: functional. As to conditions: po.
For experiment [2], the species on record is Rattus norvegicus. As to the kind of experiment: In vitro inhibition of dopamine (DA) uptake in synaptosomal preparation of rat brain. It counts as functional, organism-based.
The species named for experiment [3] is Rattus norvegicus. As to the kind of experiment: In vitro inhibition of norepinephrine (NE) uptake in synaptosomal preparation of rat brain. It counts as functional, organism-based.
For experiment [4], the species on record is Rattus norvegicus. Briefly: In vitro inhibition of serotonin uptake in synaptosomal preparation of rat brain. It counts as functional, organism-based.
In experiment [5] the test system is Rattus norvegicus. Briefly: Compound was tested for the inhibition of tetrabenazine-induced sedation in rat, after peroral administration. It counts as functional. As to conditions: po.

The ED50 is the dose at which the effect has come halfway, by size or by number of responders. A higher ED50 goes with weaker potency. One may read the IC50 as the concentration that gives 50% inhibition. Lower therefore signals higher potency. For the compound `CC(NC(C)(C)C)C(=O)c1cccc(Cl)c1` (stereo not given) [BUPROPION], the results for the ED50 in the experiment on Mus musculus and in the experiment on Rattus norvegicus [1] were 32 mg/kg and more than 100 mg/kg, respectively. In addition, the IC50 in the experiment listed under Rattus norvegicus [2] was 900 nM; in the experiment filed under Rattus norvegicus [3], 2400 nM; in the experiment listed under Rattus norvegicus [4], more than 10000 nM.
In the case of `CN(C)CCCN1c2ccccc2CCc2ccccc21` [IMIPRAMINE], the ED50 was determined as 9 mg/kg with Mus musculus and 13.4 mg/kg in the experiment on Rattus norvegicus [5]. In addition, the IC50 was more than 10000 nM in the experiment listed under Rattus norvegicus [2], 40 nM in the experiment filed under Rattus norvegicus [3] and 500 nM in the experiment filed under Rattus norvegicus [4].
In the case of `C[C@@H]1CO[C@@](O)(c2cc(F)cc(F)c2)[C@H](C)N1` [MANIFAXINE], the results for the 50% effective dose (ED50) in the experiment on Mus musculus and in the experiment with Rattus norvegicus [5] were 6.2 mg/kg and 1.4 mg/kg, respectively. The IC50 in the experiment listed under Rattus norvegicus [2] was 1000 nM; in the experiment listed under Rattus norvegicus [3] it was 70 nM; in the experiment listed under Rattus norvegicus [4], more than 10000 nM.

The values above are taken from ChEMBL document CHEMBL1129047, “(2S,3S,5R)-2-(3,5-difluorophenyl)-3,5-dimethyl-2-morpholinol: a novel antidepressant agent and selective inhibitor of norepinephrine uptake” (J Med Chem, 1996).
